{"source": "paper PMC4581321", "about": "“Inhibitory Effects of Amorphigenin on the Mitochondrial Complex I of Culex pipiens pallens Coquillett (Diptera: Culicidae)” (International Journal of Molecular Sciences, 2015)", "key": {"[1]": {"test_system": "acetylcholinesterase enzyme", "set-up": "method as in doi:10.1016/j.pestbp.2011.12.002", "details": "cited from earlier work"}, "[2]": {"test_system": "mitochondrial complex I of Cx. pipiens pallens", "experiment": "In vitro inhibition of mitochondrial complex I activity (NADH oxidation at 340 nm, isolated larval mitochondria)", "type": "biochemical, Culex pipiens pallens", "details": "NADH substrate; for IC50: isolated mitochondria, read-out: IC50 (μmol/L), in vitro", "method": "The mitochondria of the fourth instar larvae of Cx. pipiens pallens were isolated according to the method of Akbar et al. with suitable modifications. The larvae were washed in a cold extraction medium (0.25 M sucrose solution containing 0.25% defatted BSA), then homogenized in a Potter–Elvehjem homogenizer under cold conditions. The homogenate was filtered through a moist muslin cloth and the filtrate centrifuged at 1000× g for 15 min at 4 °C. The residue was re-suspended in the extraction medium and centrifuged at 1000× g for 15 min at 4 °C. The supernatants from both centrifugations were combined and centrifuged at 12,000× g for 15 min at 4 °C. The mitochondrial pellet was re-suspended in the extraction medium, and stored at −80 °C until used. The protein concentration was determined by Smith’s method using BSA as the standard.\nThe mitochondrial complex I activity of Cx. pipiens pallens was determined as described by Birch-Machin et al. with adaptations for a 96-well format. It is well known that the mitochondrial complex I has two substrates, NADH and ubiquinone. […] The activity was measured by following the decrease in absorbance due to the oxidation of NADH at 340 nm with 425 nm as the reference wavelength. In brief, 20 μL of mitochondria and 160 μL of assay buffer containing 25 mM phosphate buffer (pH 7.2), 5 mM MgCl2, 2 mM NaN3 and 2.5 mg/mL BSA were added to each well of the 96-well plate, then the microplate was incubated for 20 min at 37 °C in a microplate reader (Spectramax 190 plate reader; Molecular Devices, Sunnyvale, CA, USA). Finally, the reaction was initiated by the addition of 10 μL of 0.13 mM NADH and measured for 5 min.\nFor the assay of in vitro inhibition of the mitochondrial complex I activities, 10 μL of different concentrations each of amorphigenin and rotenone were prepared in alcohol and diluted in 25 mM phosphate buffer (pH 7.2), then mixed with 10 μL of the mitochondria. The enzyme activity was immediately determined by the method as described above. For negative controls, 10 μL of 25 mM phosphate buffer (pH 7.2) instead of amorphigenin or rotenone were used in the assays. The inhibitory extent of the compounds was expressed as the inhibitor concentrations leading to 50% of the enzyme activity reduction (IC50).\nApplying Microsoft Excel 2003 software (Microsoft, Redmond, WA, USA), the average enzyme activitie results, adjusted by Abbott, were subjected to probit analysis to calculate IC50 and correlation coefficient."}, "[3]": {"test_system": "larvae of Culex pipiens pallens", "set-up": "method as in PMID 25690287", "details": "cited from earlier work"}, "[4]": {"test_system": "mitochondrial complex I of Cx. pipiens pallens", "experiment": "Inhibition type and constants of mitochondrial complex I (enzyme-concentration plots, Lineweaver-Burk plots)", "type": "biochemical, Culex pipiens pallens", "details": "for inhibition type: Lineweaver-Burk plots, NADH and endogenous ubiquinone as substrates; for reversibility of inhibition: enzyme activity vs enzyme concentration plots", "description": "The inhibition effect on the mitochondrial complex I by amorphigenin and rotenone was also studied. […] The plots yielded straight lines passing through the origin.\nThe inhibitory kinetics of the mitochondrial complex I by amorphigenin and rotenone were studied by Lineweaver–Burk plots. […] Under the experimental conditions employed, the oxidative reaction of NADH by the mitochondrial complex I followed Michaelis–Menten kinetics. The double-reciprocal plots yielded a family of straight lines with different slopes and intercepts but they intersected one another in the second quadrant. […] Equilibrium constants for inhibitor binding with the free enzyme (KI) and with the enzyme-substrate complex (KIS) can be calculated according to the Foumulations (1) and (2) based on the slope and the vertical intercept against the concentration of inhibitors in Figure 3, respectively. (1) Slope=Ks/Vm(1+[I]/KI) (2) Intercept=1/Vm(1+[I]/KIS)\nDifferent concentrations of NADH were incubated with the mitochondria and assay buffer to examine the enzyme kinetics of NADH with and without the addition of various concentrations of rotenoids. The inhibition type of the compounds on the enzyme was assayed by Lineweaver-Burk plots. The inhibition constant was determined by plots of the apparent 1/Vm or Km/Vm versus concentration of the inhibitor [40, 58]."}, "[5]": {"test_system": "bovine heart mitochondrial complex I", "details": "cited from earlier work"}, "[6]": {"test_system": "mitochondrial complex I of Cx. pipiens pallens", "experiment": "In vivo inhibition of mitochondrial complex I activity (fourth-instar larvae exposed 24 h, then mitochondria isolated)", "set-up": "species or system Culex pipiens pallens", "details": "for decrease of mitochondrial complex I activity compared with control: 24 h"}, "[7]": {"test_system": "fourth instar larvae of A. aegypti", "set-up": "method as in doi:10.1016/S0031-9422(00)83185-4", "details": "10 ppm; cited from earlier work"}, "[8]": {"test_system": "mitochondrial complex I prepared from a pig's heart", "set-up": "method as in doi:10.1016/S0926-6593(65)80060-1", "details": "cited from earlier work"}, "[9]": {"test_system": "NADH-ubiquinone reductase of bovine heart submitochondrial particles", "set-up": "method as in PMID 7925463", "details": "against exogenous quinine DB and DPB; cited from earlier work"}, "[10]": {"test_system": "mitochondrial complex I from submitochondrial particles of blow fly flight-muscle", "set-up": "method as in doi:10.1016/S0960-894X(00)80645-9", "details": "cited from earlier work"}, "[11]": {"test_system": "3th instar larvae of Bombyx mori", "details": "cited from earlier work; for LC50: 3th instar larvae"}, "[12]": {"set-up": "method as in earlier work", "details": "summer sunlight; cited from earlier work"}, "[13]": {"test_system": "mammalian NADH-ubiquinone reductase", "set-up": "method as in PMID 7925463", "details": "relative to rotenone; cited from earlier work"}}, "note": "Read-outs that look alike come from different tables or passages of the source."}
{"compound": "Cc1ccc(C(C)C)cc1O", "note": "[Carvacrol, carvacrol]", "values": [{"measurement": "inhibition of acetylcholinesterase enzyme", "setting": "[1]; house flies, ticks and cockroaches", "value": "slight inhibition"}, {"measurement": "inhibition of acetylcholinesterase enzyme", "setting": "[1]; mosquito", "value": "did not inhibit"}]}
{"compound": "C=C(CO)[C@H]1Cc2c(ccc3c2O[C@@H]2COc4cc(OC)c(OC)cc4[C@@H]2C3=O)O1", "note": "[Amorphigenin]", "values": [{"measurement": "decrease of mitochondrial complex I activity compared with control", "setting": "[2]; 2 μmol/L", "value": 27.38, "unit": "%"}, {"measurement": "decrease of mitochondrial complex I activity compared with control", "setting": "[2]; 3 μmol/L", "value": 50.00, "unit": "%"}, {"measurement": "decrease of mitochondrial complex I activity compared with control", "setting": "[2]; 4 μmol/L", "value": 70.24, "unit": "%"}, {"measurement": "IC50", "setting": "[2]", "value": 2.86, "unit": "µmol/L"}, {"measurement": "LC50, larvicidal activity", "setting": "[3]", "value": 4.29, "unit": "µg/mL"}, {"measurement": "LC90, larvicidal activity", "setting": "[3]", "value": 11.27, "unit": "µg/mL"}, {"measurement": "inhibition type", "setting": "[4]", "value": "mixed-I type"}, {"measurement": "reversibility of inhibition", "setting": "[4]", "value": "reversible"}, {"measurement": "inhibitory potency compared with rotenone", "setting": "[5]", "value": "comparable with rotenone"}, {"measurement": "decrease of mitochondrial complex I activity compared with control", "setting": "[6]; 1.25 μmol/L, NADH substrate", "value": 1.52, "unit": "fold"}, {"measurement": "decrease of mitochondrial complex I activity compared with control", "setting": "[6]; 2.5 μmol/L, NADH substrate", "value": 1.78, "unit": "fold"}, {"measurement": "decrease of mitochondrial complex I activity compared with control", "setting": "[6]; 5 μmol/L, NADH substrate", "value": 2.43, "unit": "fold"}, {"measurement": "IC50", "setting": "[6]; fourth-instar larvae exposed 24 h, NADH substrate, read-out: IC50 (μmol/L), in vivo", "value": 2.43, "unit": "µmol/L"}]}
{"compound": "arylazidoamorphigenin", "values": [{"measurement": "inhibitory potency compared with rotenone", "setting": "[5]", "value": "comparable with those of rotenone"}]}
{"compound": "amorphigenin 8′-β-glucoside", "values": [{"measurement": "loss of the fourth instar larvae", "setting": "[7]", "value": 85, "unit": "%"}, {"measurement": "pupae formation", "setting": "[7]", "value": "without the formation of pupae"}]}
{"compound": "C=C(C)[C@H]1Cc2c(ccc3c2O[C@@H]2COc4cc(OC)c(OC)cc4[C@@H]2C3=O)O1", "note": "[Rotenone, reference compound]", "values": [{"measurement": "in vitro IC50", "setting": "[8]", "value": "1.8 × 10^−5 μmol/mg protein"}, {"measurement": "inhibition type", "setting": "[9]", "value": "noncompetitive"}, {"measurement": "decrease of mitochondrial complex I activity compared with control", "setting": "[2]; 3 μmol/L", "value": "significantly decreased"}, {"measurement": "decrease of mitochondrial complex I activity compared with control", "setting": "[2]; 4 μmol/L", "value": "significantly decreased"}, {"measurement": "IC50", "setting": "[2]", "value": 3.14, "unit": "µmol/L"}, {"measurement": "inhibition type", "setting": "[10]", "value": "reversible competitive inhibitor"}, {"measurement": "inhibition type", "setting": "[4]", "value": "mixed-I type"}, {"measurement": "reversibility of inhibition", "setting": "[4]", "value": "reversible"}, {"measurement": "decrease of mitochondrial complex I activity compared with control", "setting": "[6]; 1.25 μmol/L, NADH substrate", "value": 1.45, "unit": "fold"}, {"measurement": "decrease of mitochondrial complex I activity compared with control", "setting": "[6]; 2.5 μmol/L, NADH substrate", "value": 1.77, "unit": "fold"}, {"measurement": "decrease of mitochondrial complex I activity compared with control", "setting": "[6]; 5 μmol/L, NADH substrate", "value": 2.41, "unit": "fold"}, {"measurement": "IC50", "setting": "[6]; read-out: IC50 (μmol/L), in vivo, fourth-instar larvae exposed 24 h, NADH substrate", "value": 2.52, "unit": "µmol/L"}, {"measurement": "LC50", "setting": "[11]", "value": 9.33, "unit": "µg/mL"}, {"measurement": "time until all toxicity is lost", "setting": "[12]", "value": "2 to 3", "unit": "days"}]}
{"compound": "C=C(C)[C@@H]1CCC2=CC(=O)C[C@@H](C)[C@]2(C)C1", "note": "[Nootkatone, nootkatone]", "values": [{"measurement": "inhibition of acetylcholinesterase enzyme", "setting": "[1]; any of the four arthropod models tested", "value": "did not inhibit"}]}
{"compound": "C=C(C)C1Cc2c(ccc3c2OC2COc4cc(OC)c(OC)cc4C2C3O)O1", "note": "(stereo not shown) [rotenone reduced with NaBH4]", "values": [{"measurement": "in vitro IC50", "setting": "[8]", "value": "2.0 × 10^−5 μmol/mg protein"}]}
{"compound": "C=C(C)[C@@H]1Cc2c(ccc3c2O[C@@H]2COc4cc(OC)c(OC)cc4[C@@H]2C3=O)O1", "note": "[5′β- epirotenone]", "values": [{"measurement": "times less inhibiting than rotenone", "setting": "[13]", "value": "about 1000 times"}, {"measurement": "LC50", "setting": "[11]", "value": 225.70, "unit": "µg/mL"}, {"measurement": "times less toxic than rotenone", "setting": "[11]; relative to rotenone", "value": "about 24 times"}]}
